Experimental data taken from patent US20230226012A1, “USE OF USNIC ACID, A SALT OF USNIC ACID, OR A FORMULATION THEREOF IN THE PREPARATION OF ANTI-AVIAN COCCIDIOSIS DRUGS OR FEED ADDITIVES” (priority 2022, published 2023).

System: Eimeria tenella
Experiment: Anticoccidial test in chickens orally inoculated with sporulated oocysts of Eimeria tenella (anticoccidial index, ACI)
Format: in vivo
Conditions: for Lesion value: cecum, 7th day after infection; for Oocyst value: converted according to Table 2; for Clinical symptoms (bloody stool): after infection
Excerpt: Male chicks from layer aged 1 day were selected and raised to 12-day-old. Each was weighed, while excluding thin or overweight individuals, healthy chickens with individual weight differences of less than 10 g were selected, and randomly divided into thirteen groups with each group including thirty chickens. Among them, ten groups were used as drug groups, one group as a model group, one group as a diclazuril group, and one group as a blank control group. Each chicken aged 12 days of the drug groups was subject to drug administration through mixing with feed, while that of the diclazuril group was administrated though drinking water. Each chicken aged 14 days in the drug groups, the diclazuril group and the model group was orally inoculated with 1.0×10^4 sporulated oocysts of Eimeria tenella. Each experimental chicken in all groups was free to feed and drink water until the test was over on the seventh day.
The anticoccidial index (ACI) criteria were calculated by
the calculation formula of Merck Corporation (USA), that is:
ACI=(relative weight gain rate+survival rate)×100−(lesion value+oocyst value).
Among them, the relative weight gain rate was calculated by
weighing each chicken at the beginning and end of the test, respectively, to calculate the average and relative weight gain rates. Relative weight gain rate=(test group weight gain rate/blank control group weight gain rate)×100%.
The survival rate was calculated by
recording the number of dead chickens in each group, performing an autopsy to determine the cause of death, and calculating the survival rate. Survival rate=(number of chickens alive at the end of the test/number of chickens in the test group)×100%
The lesion value was calculated by
slaughtering each chicken on the 7th day after infection to take the cecum (as shown in FIG. 5-6), and scoring the intestinal lesion of each chicken according to the lesion scoring method designed by […] and Reid (1970), and converting the lesion score into the lesion value.
Lesion scoring: (in case of lesion inconsistence between both sides of cecum, the more severe shall prevail):
0 point: no macroscopic lesions;
1 point: there are a few of petechiae scattered in the cecal wall, the cecal wall is not thickened, and the contents therein are normal;
2 points: the lesion number is more, the cecum contents are obviously bloody, the cecal wall is slightly thickened, and the contents therein are normal;
3 points: there is a lot of blood or there is a cecum core (blood clot or off-white cheese-like banana-shaped blocks) in the cecum, the cecal wall is obviously thickened, and the feces contents in the cecum are poor;
4 points: the cecum swells due to being full of a large amount of blood or cecum core with or without fecal residue, and it is also scored 4 points when the chicken dies for coccidiosis.
Lesion value (0-40)=average lesion score (0-4) for each test group×10
The oocyst value and the relative oocyst production (ROP) were calculated by collecting the chicken feces of each group, counting the number of oocysts in the feces according to McMaster counting, calculating the number of oocysts per gram of feces of each group, and obtaining the oocyst value by conversion according to Table 2.
Relative oocyst production (ROP)=(average oocyst production in the test group/average oocyst production in the model group)×100%. ROP≥15%, resistant to drugs; ROP<15%, no drug resistance.
The criteria for determining the drug efficacy were: ACI>180, high efficacy against coccidiosis; 160<ACI<180, medium efficacy against coccidiosis; 120<ACI<160, low efficacy against coccidiosis; ACI<120, inefficacy against coccidiosis.
Male chicks from layer aged 1 day were selected and raised to 12-day-old. Each was weighed, while excluding thin or overweight individuals, healthy chickens with individual weight differences of less than 10 g were selected, and randomly divided into 6 groups with each group including thirty chickens. […]

[1] = Example 2, Drug groups 1, 2 5 kg/ton in feed, Drug group 3 1:400 drinking water, diclazuril 0.2 ml/L
[2] = Example 3, Drug groups 5 kg/ton in feed, diclazuril 0.2 ml/L drinking water

In the case of N#CC(c1ccc(Cl)cc1)c1c(Cl)cc(-n2ncc(=O)[nH]c2=O)cc1Cl (stereo not drawn) [Diclazuril], the “Effect against avian coccidiosis (conclusion)” value (Example 1) is reported as “high therapeutic effect”, the “Clinical symptoms (bloody stool, food intake)” value (Example 1, 4th to 6th day after infection) is reported as “no bloody stool” and the “Bloody stool (feces observation)” value (Example 1, 5th day after Eimeria challenge, partially mixed with blood / a large amount of feces mixed with blood / bloodless) is reported as “bloodless”. The ACI value (Example 1, ACI=(relative weight gain rate+survival rate)×100−(lesion value+oocyst value), herbs 5 kg/ton in feed, diclazuril 0.2 ml/L drinking water) was 201.2, the “Relative oocyst production (ROP)” value (Example 1, average oocyst production relative to model group, herbs 5 kg/ton in feed, diclazuril 0.2 ml/L drinking water) was 0.0% and the Lesion value (Example 1, lesion value (0-40) = average lesion score ×10, herbs 5 kg/ton in feed, diclazuril 0.2 ml/L drinking water) was 0.0. For the same compound, the “Relative weight gain rate” value (Example 1, chickens, 1.0×10^4 oocysts at 14 days of age, herbs 5 kg/ton mixed with feed, diclazuril 0.2 ml/L drinking water, 9 days, relative to blank control) was 101.2%, the Survival rate (Example 1, chickens, 1.0×10^4 oocysts, herbs 5 kg/ton in feed, diclazuril 0.2 ml/L drinking water, 9 days) was 100% and the “Criteria (drug efficacy by ACI)” value (Example 1, herbs 5 kg/ton in feed, diclazuril 0.2 ml/L drinking water) was “High (ACI>180, high efficacy against coccidiosis)”. For the same compound, the Oocyst value (Example 1, oocysts per gram of feces relative to model group, herbs 5 kg/ton in feed, diclazuril 0.2 ml/L drinking water) was 0, the “Effect against avian coccidiosis (conclusion)” value (Example 2) was “high therapeutic effect” and the ACI value [1] was 198.9. The “Criteria (drug efficacy by ACI)” value [1] was “High (ACI>180, high efficacy against coccidiosis)”, the Survival rate (Example 2, Drug groups 1, 2 5 kg/ton in feed, Drug group 3 1:400 drinking water, diclazuril 0.2 ml/L drinking water) was 100% and the “Clinical symptoms (bloody stool)” value (Example 2) was “no bloody stool”. The Lesion value [1] was 0, the “Relative weight gain rate” value (Example 2, chickens, 1.0×10^4 oocysts, Drug groups 1, 2 5 kg/ton in feed, Drug group 3 1:400 drinking water, diclazuril 0.2 ml/L drinking water, 9 days) was 98.9% and the Oocyst value [1] was 0. For the same compound, the “Relative oocyst production (ROP)” value (Example 2, relative to model group, Drug groups 1, 2 5 kg/ton in feed, Drug group 3 1:400 drinking water, diclazuril 0.2 ml/L) was 0%, the ACI value [2] was 198.4 and the “Criteria (drug efficacy by ACI)” value [2] was “High (ACI>180, high efficacy against coccidiosis)”. For the same compound, the Survival rate [2] was 100%, the “Clinical symptoms (bloody stool)” value (Example 3) was “no bloody stool” and the Lesion value [2] was 0. For the same compound, the “Relative weight gain rate” value (Example 3, chickens, 1.0×10^4 oocysts, Drug groups 1-3 5 kg/ton in feed, diclazuril 0.2 ml/L drinking water, 9 days) was 98.4%, the Oocyst value [2] was 0 and the “Relative oocyst production (ROP)” value (Example 3, relative to model group, Drug groups 5 kg/ton in feed, diclazuril 0.2 ml/L drinking water) was 0%.
